From paper PMC8318231, “Rate-of-Kill (RoK) assays to triage large compound sets for Chagas disease drug discovery: Application to GSK Chagas Box” (PLoS Neglected Tropical Diseases, 2021)

What was measured:
[1] = system: T. cruzi intracellular amastigotes in H9c2 cells; assay: Rate-of-Kill (RoK) high-content imaging assay, amastigotes per cell (AM/CELL) and curve descriptors; format: cell-based, Trypanosoma cruzi; parameters: key to ME_24h / ME_48h / ME_72h: % reduction in parasite burden (cidal response); t50pct_MCC50 / t50pct_Cmax: unit not given here; settings: for ME_24h: 24h; for ME_48h: 48h; for ME_72h: 72h; for t50%_Cmax / tlag_Cmax / t50pct_Cmax: at Cmax; for ME_24h (%): maximum effect at 24 h; for ME_24h (%) / ME_48h (%) / ME_72h (%): RoK assay; for ME_48h (%): maximum effect at 48 h; for ME_72h (%): maximum effect at 72 h
Procedure: For this high-content intracellular imaging assay, H9c2 cells were seeded in 225 cm^2 T- FLASK in DMEM with 10% FBS for 4 h to allow attachment. T. cruzi trypomastigotes, collected at days 5 to 8 after infection from LLC-MK2 parasite infected cultures, were allowed to swim out for 4 h at 37°C from a centrifuged pellet (1,600 x g / 10 min). Trypomastigotes were then collected and counted in a CASY Cell Counter using the 60 μm capillary. Trypomastigotes, in supplemented DMEM, were added to H9c2 cultures in a multiplicity of infection (MOI) of 8 and incubated for 18 h. Cells were washed once with PBS before incubation of the infected H9c2 monolayer with trypsin (Life-Technologies) to detach cells from the flask. Cells were counted in a CASY Cell Counter, using the 150 μm capillary, and their density set at 5 x 10^4 cells/mL in supplemented DMEM. Infected H9c2 were dispensed into 384-well plates at 50 μL per well using a Multidrop Combi dispenser. Control wells used to determine a 100% parasitic growth (full 6th column of each plate) were left untreated, whereas not infected cells were added in the control wells used as 0% parasite growth (or 100% parasite growth inhibition; full 18th column of each plate). The four plates corresponding to each RoK assay were predispensed for the same mother plate. […] Cultures were then fixed and stained with 50 μL per well of a PBS solution containing 4% formaldehyde and 2 μM DRAQ5 DNA dye (BioStatus, UK). Then plates were read in a PerkinElmer Opera Phenix using a 20x objective, 3 fields per well. DRAQ5 signal was detected using 640 nm excitation laser and a 690/50 nm emission detection filter. Automated image analysis was performed with a script developed on Acapella High Content Imaging and Analysis Software (PerkinElmer). Two outputs were provided for each sample well: (1) number of host cells nuclei to determine drug-related cytotoxicity (aka H9c2) and (2) number of amastigotes per cell as infection level measurement (aka AM/CELL). Each output is plotted as a time course for each compound at every concentration. This assay was adapted from Alonso-Padilla et al. and Peña et al..
To identify and classify the different compounds, the number of amastigotes per cell (AM/CELL) raw data obtained in rate of kill assay are normalised using the average of C1 (infected cells) at time 4 hours as 0% effect and the average of C2 (non-infected cells) for each time as 100% effect, according to the following Eq 1: %CIDALRESPONSE=100*[Avg_C14h-RawData]/[Avg_C14h-Avg_C2] (1)
• ME (Maximum Effect) is the maximum percentage of parasite burden reduction reached by any compound concentration. Compounds that decrease the initial parasite load will show a positive value of ME, whereas compounds that allow the progression of infection will render a negative ME value. […] It is calculated for the MCC50 (t50%_MCC50) and for the maximum concentration (t50%_Cmax). […] The value of this parameter is not either interpolated or extrapolated, and it refers to the first experimental time-course point at which a 50% of effect is reached or exceeded. • tlag defines the time elapsed for one particular concentration to reduce parasite burden between two consecutive points at any moment of the time course. It is calculated for the MCC50 (tlag_MCC50) and for the maximum concentration (tlag_Cmax). The value of this parameter is not either interpolated or extrapolated, and it refers to the first experimental time-course point of a positive slope in the normalised plot (i.e. %Cidal_Response). • Cmin_Tox (Minimal CytoToxic Concentration) is the lowest compound concentration that is reducing the number of host mammalian cells below 50% of initial cell density. Cytotoxic compounds may mislead a bona fide antiparasitic action.

TcCYP51 = settings: cited from earlier work; for CYP51 pIC50: formerly reported
[2] = maximum percentage of parasite burden reduction reached by any concentration, 24 hours

CC1CS(=O)(=O)CCN1/N=C/c1ccc([N+](=O)[O-])o1 (stereo not drawn) [Nifurtimox, nifurtimox, reference compound]
ME (maximum effect) in RoK assay (in words) [1]: higher ME values close to 100% | tlag (in words) [1]: short t-lag values | ME_24h ([1]; figure 5): 79.7791 | ME_48h ([1]; figure 5): 100.284 | ME_72h ([1]; figure 5): 96.6694 | t50pct_Cmax (t50%_Cmax) ([1]; Fig 2C, average, time to reduce 50% of initial parasite load at maximum concentration): 24 h | MCC50 ([1]; RoK curve descriptor): 7.5 µM | MCCE ([1]; RoK curve descriptor): 1.9 µM | AM/CELL NORM ([1]; Time 4, figure 4 A): -6.175 | AM/CELL NORM ([1]; Time 24, figure 4 A): 78.541 | AM/CELL NORM ([1]; Time 48, figure 4 A): 98.3875 | AM/CELL NORM ([1]; Time 72, figure 4 A): 101.766 | Emax ([1]; Trypanosoma cruzi, H9c2, maximum percentage of parasite burden reduction reached by any concentration, 24 hours, read-out: ME 24h (maximum effect at 24 hours, intracellular amastigotes)): 81.7% | t50%_Cmax [1]: 24.0 h | tlag_Cmax [1]: 4.0 h | t50pct_Cmax ([1]; figure 5): 25.3333 | tlag_Cmax ([1]; figure 5): 4 | t50%_MCC50 ([1]; at MCC50): 48.2 h | tlag_MCC50 ([1]; at MCC50): 8.9 h | t50pct_MCC50 ([1]; at MCC50, figure 5): 48.2222 | tlag_MCC50 ([1]; at MCC50, figure 5): 8.889 | MCCE ([1]; figure 5): 1.852 | MCC50 ([1]; figure 5, in µM): 7.545 | ME_24h (%) [1]: 79.8% | ME_48h (%) [1]: 100.3% | ME_72h (%) [1]: 96.7% | CYP51 mean (TcCYP51; TcCYP51 enzyme inhibition, mean, figure 1B, ref original boxes paper): 4.3 | CYP51 pIC50 (TcCYP51): < 4

Cc1sc(C)c(C(F)(F)F)c1CNCCCNc1cc(=O)c2ccccc2[nH]1.Cl [TCMDC-140766]
ME (maximum effect) in RoK assay (in words) [1]: high ME at 24 hours and 72 hours | tlag (in words) [1]: short tlag times | ME_24h ([1]; figure 5): 54.6006 | ME_48h ([1]; figure 5): 64.1651 | ME_72h ([1]; figure 5): 71.5778 | MCC50 ([1]; RoK curve descriptor): 5.6 µM | MCCE ([1]; RoK curve descriptor): 0.6 µM | AM/CELL NORM ([1]; Time 4, figure 4 A): 7.643 | AM/CELL NORM ([1]; Time 24, figure 4 A): 58.2122 | AM/CELL NORM ([1]; Time 48, figure 4 A): 67.454 | AM/CELL NORM ([1]; Time 72, figure 4 A): 69.5653 | t50%_Cmax [1]: 24.0 h | tlag_Cmax [1]: 4.0 h | t50pct_Cmax ([1]; figure 5): 24 | tlag_Cmax ([1]; figure 5): 4 | t50%_MCC50 ([1]; at MCC50): 72.0 h | tlag_MCC50 ([1]; at MCC50): 4.0 h | t50pct_MCC50 ([1]; at MCC50, figure 5): 72 | tlag_MCC50 ([1]; at MCC50, figure 5): 4 | MCCE ([1]; figure 5): 0.6173 | MCC50 ([1]; figure 5, in µM): 5.556 | ME_24h (%) [1]: 54.6% | ME_48h (%) [1]: 64.2% | ME_72h (%) [1]: 71.6% | ME 24h (maximum effect at 24 hours, intracellular amastigotes) [1, 2]: 58.2122% | CYP51 pIC50 (TcCYP51): 4.7

CC(C)N(C(=O)CN1C(=O)C(N)C(=O)N(c2ccccc2)c2ccccc21)c1ccccc1 (stereo not drawn) [TCMDC-143071]
ME_24h ([1]; figure 5): -154.934 | ME_48h ([1]; figure 5): -40.5762 | ME_72h ([1]; figure 5): 63.3605 | MCC50 ([1]; RoK curve descriptor): 5.6 µM | MCCE ([1]; RoK curve descriptor): 0.6 µM | AM/CELL NORM ([1]; Time 4, sheet figure 4 A): -6.592 | AM/CELL NORM ([1]; Time 24, sheet figure 4 A): -184.227 | AM/CELL NORM ([1]; Time 48, sheet figure 4 A): -40.5762 | AM/CELL NORM ([1]; Time 72, sheet figure 4 A): 57.0597 | t50%_Cmax [1]: 72.0 h | tlag_Cmax [1]: 24.0 h | t50pct_Cmax ([1]; figure 5): 72 | tlag_Cmax ([1]; figure 5): 24 | t50%_MCC50 ([1]; at MCC50): 72.0 h | tlag_MCC50 ([1]; at MCC50): 24.0 h | t50pct_MCC50 ([1]; at MCC50, figure 5): 72 | tlag_MCC50 ([1]; at MCC50, figure 5): 24 | MCCE ([1]; figure 5): 0.6173 | MCC50 ([1]; figure 5, in µM): 5.556 | ME_24h (%) [1]: -154.9% | ME_48h (%) [1]: -40.6% | ME_72h (%) [1]: 63.4% | ME 24h (maximum effect at 24 hours, intracellular amastigotes) [1, 2]: -154.934% | CYP51 pIC50 (TcCYP51): 6.5
